In test [1] the test system is WNT-TCF targets. As to the kind of experiment: RT-qPCR gene expression in Ls174T cells. The test is classed as cell-based, human. Conditions: for fold induction at 0.5 µM / fold induction at 5 µM: Homo sapiens. As for the experimental part:
(§1) RT-qPCR was performed as in Melotti et al. (2014, supra) using BioRad equipment and reagents. Cells cultured in nitro were treated with the desired concentration of drug in DMEM-F12 and reduced serum (2.5% FBS) for 16h, unless otherwise noted, and collected in Trizol (Sigma) before total RNA extraction and cDNA synthesis. Primers were as in Table 1. HPRT (gene encoding Hypoxanthine phosphoribosyltransferase 1) and βACTIN were used as housekeeping controls for normalization.
Compounds have been tested for the transcriptional modulation of a restricted TCF signature in human colon cancer Ls174T cells. These included the direct targets AXIN2 (gene encoding a protein axis inhibition protein 2), LGR5 (gene encoding encodes leucine-rich repeat-containing G-protein coupled receptor 5) and cMYC (a regulator gene encoding a transcription factor), which should be repressed by WNT-TCF response antagonists and p21 (or CDKN1A, gene encoding a cyclin-dependent kinase inhibitor that inhibits the complexes of CDK2 and CDK1), which should be induced.
A general note: In qPCR the cycle at which signal appears reflects the starting amount.

The test system of the next test is CC14 cells. Briefly: Epithelial island morphology of CC14 cells. The test is classed as cell-based, human. The conditions noted are these: 24h; for epithelial island morphology: 1 µM. As for the experimental part:
Similar phenotypes were only observed at 10 µM of CAP1 or 5 µM of CAP3. CAP2 was thus chosen for further detailed analyses.

In test [2] the test system is WNT-TCF targets. As to the kind of experiment: RT-qPCR gene expression in CC14 primary colon cancer cells. Type of test: cell-based, human. Further details: cMYC expression: scale not given here. Conditions: 100 nM; Example 2 cells (CC14). As for the experimental part: as §1
Primary colon cells CC14 were cultured in DMEM-F12 with 10% FBS under standard in vitro conditions.
Primary colon cells CC14, CC36 and mCC11, colon cancer cell lines DLD1, HT29, Ls174T, melanoma cell line MeWo, glioblastoma cell lines U87 and U251, and the lung cancer cell line H358 were cultured in DMEM-F12 with 10% FBS under standard in nitro conditions.

A further test deals with cell proliferation. Briefly: BrdU incorporation assay. Conditions: 10 µM; 16h. Type of test: cell-based. As for the experimental part:
Cells incubated in vitro with different compounds were treated in DMEM-F12 with reduced serum (2.5% FBS) for 20 min with BrdU (5-bromo-2'-deoxyuridine; 10mg/ml, Sigma), washed and fixed with fresh paraformaldehyde (PFA; 4%, pH 8) followed by acid treatment and neutralization (Melotti et al., 2014, supra). Antibody analyses used anti-BrdU antibodies (supplied by University of Iowa Hybridoma Bank) and rhodamine-coupled anti-mouse secondary antibodies (Invitrogen Molecular Probes). Nuclei were counterstained with DAPI (4',6-diamidino-2-phenylindole; Sigma).

Where [3] appears, read: LS174T, 16 h, read-out: AXIN2 expression.
[4] abbreviates: LS174T, 16 h, read-out: CDKN1A expression.
Where [5] appears, read: LS174T, 16 h, read-out: cMYC expression.
[6] abbreviates: Ls174T, 0.5µM, 16h, over DMSO-treated controls, read-out: AXIN2 expression.
Where [7] appears, read: Ls174T, 0.5µM, 16h, over DMSO-treated controls, read-out: CDKN1A expression.
The mark [8] stands for this setting: Ls174T, 0.5µM, 16h, over DMSO-treated controls, read-out: LGR5 expression.
[9] abbreviates: Ls174T, 0.5µM, 16h, over DMSO-treated controls, read-out: cMYC expression.
[10] abbreviates: Ls174T, 0.5µM, 16h, over DMSO-treated controls.
[11] abbreviates: Ls174T, 5µM, 16h, over DMSO-treated controls.

Data on 13 molecules can be found in patent EP3248604A1, “AGENTS FOR MODULATION OF WNT-TCF SIGNALLING AND USES THEREOF” (UNIVERSITE DE GENEVE, priority 2016, dated 2017).

Read-outs that look alike come from different tables or passages of the source.

In the case of “2,6-dimethyltetrahydropyran-3,4,5-triol; ethane; 3-(3,14,16-trihydroxy-10,13-dimethyl-1,2,3,4,5,6,7,8,9,11,12,15,16,17-tetradecahydro cyclopenta[a]phenanthren-17-yl)-2H-furan-5-one [CAP3]”, in the test on WNT-TCF targets [1] (Ls174T, 10 µM, 16h), the AXIN2 expression is 0.7, the CDKN1A expression is given as 6.3, the LGR5 expression was determined as 0.2 and the cMYC expression was determined as 0.2. In addition, in the test on CC14 cells, the epithelial island morphology entry is on record as “maintained” and the “concentration at which disrupted morphology phenotype was observed” value stood at 5 µM.

Take `CC1=C(C)C(=O)O[C@@H]([C@@](C)(O)[C@]2(O)CC[C@@]3(O)[C@@H]4CC=C5C[C@@H](O[C@@H]6O[C@H](CO)[C@@H](O)[C@H](O)[C@H]6O)CC(=O)[C@]5(C)[C@H]4CC[C@]23C)C1` [CAP1, (14R,17S,20R,22R)-3β,14,17,20-Tetrahydroxy-1-oxo-witha-5,24-dienolide 3-O-β-D-glucopyranoside]: in the test with WNT-TCF targets [1] (Ls174T, 10 µM, 16h), the AXIN2 expression is 0.7, the CDKN1A expression came out at 2.5, the LGR5 expression is 0.2 and the cMYC expression was determined as 0.1. Besides, in the test on CC14 cells, the epithelial island morphology result is “maintained” and the “concentration at which disrupted morphology phenotype was observed” value is reported as 10 µM. Besides, in the test with WNT-TCF targets [2], the AXIN2 expression was determined as 1.1, the LGR5 expression is recorded as 0.8 and the cMYC expression is recorded as 1.2. Besides, the “reduction of BrdU incorporation” value with cell proliferation is recorded as greater than 50%.

With `C[C@@H]1O[C@@H](O[C@H]2CC[C@]3(C=O)[C@H]4CC[C@]5(C)[C@@H](C6=CC(=O)OC6)CC[C@]5(O)[C@@H]4CC[C@]3(O)C2)[C@H](O)[C@H](O)[C@H]1O` [Convallatoxin, convallatoxin, reference compound], the fold induction at 0.5 µM with WNT-TCF targets [1] (setting [3]) is 1.7; in the test with WNT-TCF targets [1] (setting [4]), 0.3; in the test on WNT-TCF targets [1] (LS174T, 16 h, read-out: LGR5 expression) it was 1.6; in the test with WNT-TCF targets [1] (setting [5]) it was 0.2.

`CO[C@H]1C[C@H](O[C@H]2CC[C@]3(C=O)[C@H]4CC[C@]5(C)[C@@H](C6=CC(=O)OC6)CC[C@]5(O)[C@@H]4CC[C@]3(O)C2)O[C@H](C)[C@H]1O` [Cymarin, cymarin, reference compound]: the fold induction at 0.5 µM in the test on WNT-TCF targets [1] (setting [6]) was determined as 1; with WNT-TCF targets [1] (setting [7]), 0.9; in the test on WNT-TCF targets [1] (setting [8]) it was 0.9; with WNT-TCF targets [1] (setting [9]), 1.

Consider `C[C@H]1O[C@@H](O[C@H]2[C@@H](O)C[C@H](O[C@H]3[C@@H](O)C[C@H](O[C@H]4CC[C@@]5(C)[C@H](CC[C@@H]6[C@@H]5CC[C@]5(C)[C@@H](C7=CC(=O)OC7)CC[C@]65O)C4)O[C@@H]3C)O[C@@H]2C)C[C@H](O)[C@@H]1O` [Digitoxin, digitoxin, reference compound], for which the fold induction at 0.5 µM was 0.6 in the test on WNT-TCF targets [1] (setting [6]), 1.7 in the test with WNT-TCF targets [1] (setting [7]), 2.1 in the test on WNT-TCF targets [1] (setting [8]) and 0.2 in the test on WNT-TCF targets [1] (setting [9]). Also, the LGR5 repression result with WNT-TCF targets [1] (Ls174T, lower doses 100 and 10 nM) is recorded as “lack of repressing on LGR5”.

Take `C[C@H]1O[C@@H](O[C@H]2[C@@H](O)C[C@H](O[C@H]3[C@@H](O)C[C@H](O[C@H]4CC[C@@]5(C)[C@H](CC[C@@H]6[C@@H]5C[C@@H](O)[C@]5(C)[C@@H](C7=CC(=O)OC7)CC[C@]65O)C4)O[C@@H]3C)O[C@@H]2C)C[C@H](O)[C@@H]1O` [Digoxin, digoxin, reference compound]: the fold induction at 0.5 µM with WNT-TCF targets [1] (setting [6]) worked out at 0.5; with WNT-TCF targets [1] (setting [7]) it was 3; in the test on WNT-TCF targets [1] (setting [8]), 6.6; in the test with WNT-TCF targets [1] (setting [9]), 1.1.

For `C[C@]12CC[C@H](O)C[C@H]1CC[C@@H]1[C@@H]2CC[C@]2(C)[C@@H](C3=CC(=O)OC3)[C@@H](O)C[C@]12O` [Gitoxigenin, gitoxigenin, reference compound], the fold induction at 0.5 µM in the test on WNT-TCF targets [1] (setting [6]) was found to be 1; with WNT-TCF targets [1] (setting [7]) it was 0.3; in the test on WNT-TCF targets [1] (setting [8]), 0.6; with WNT-TCF targets [1] (setting [9]), 0.4.

In the case of `C[C@H]1O[C@@H](O[C@H]2[C@@H](O)C[C@H](O[C@H]3[C@@H](O)C[C@H](O[C@H]4CC[C@@]5(C)[C@H](CC[C@@H]6[C@@H]5CC[C@]5(C)[C@@H](C7=CC(=O)OC7)[C@@H](O)C[C@]65O)C4)O[C@@H]3C)O[C@@H]2C)C[C@H](O)[C@@H]1O` [Gitoxin, gitoxin, reference compound], the fold induction at 0.5 µM turned out to be 0.4 with WNT-TCF targets [1] (setting [3]), 1.3 in the test with WNT-TCF targets [1] (setting [4]) and 0.8 with WNT-TCF targets [1] (setting [5]).

Take `CO[C@H]1[C@H](O)[C@H](O[C@H]2CC[C@@]3(C)[C@H](CC[C@@H]4[C@@H]3CC[C@]3(C)[C@@H](C5=CC(=O)OC5)CC[C@]43O)C2)O[C@@H](C)[C@@H]1O` [Neriifolin, neriifolin, reference compound]: the fold induction at 0.5 µM worked out at 1.2 in the test on WNT-TCF targets [1] (setting [6]) and 1.8 in the test with WNT-TCF targets [1] (setting [8]).

Consider `CO[C@H]1C[C@H](O[C@H]2CC[C@@]3(C)[C@H](CC[C@@H]4[C@@H]3CC[C@]3(C)[C@@H](C5=CC(=O)OC5)[C@@H](OC(C)=O)C[C@]43O)C2)O[C@@H](C)[C@@H]1O` [Oleandrin, oleandrin, reference compound], for which the fold induction at 0.5 µM in the test on WNT-TCF targets [1] (setting [6]) was determined as 1.6; in the test on WNT-TCF targets [1] (setting [7]), 1.1; in the test with WNT-TCF targets [1] (setting [8]), 0.5; in the test with WNT-TCF targets [1] (setting [9]), 0.1.

For the molecule `C[C@@H]1O[C@@H](O[C@H]2C[C@@H](O)[C@]3(CO)[C@H]4[C@H](O)C[C@]5(C)[C@@H](C6=CC(=O)OC6)CC[C@]5(O)[C@@H]4CC[C@]3(O)C2)[C@H](O)[C@H](O)[C@H]1O` [Ouabain, ouabain, reference compound], the fold induction at 0.5 µM with WNT-TCF targets [1] (setting [6]) is 0.8; in the test on WNT-TCF targets [1] (setting [7]), 10; in the test on WNT-TCF targets [1] (setting [8]), 3.3; in the test with WNT-TCF targets [1] (setting [9]), 0.5. The fold induction at 5 µM in the test with WNT-TCF targets [1] (Ls174T, 5µM, 16h, over DMSO-treated controls, read-out: AXIN2 expression) came to 1; in the test with WNT-TCF targets [1] (Ls174T, 5µM, 16h, over DMSO-treated controls, read-out: LGR5 expression), 1.4.

Regarding `CC1=C(C)C(=O)O[C@@H]([C@](C)(O)[C@H]2CC[C@H]3[C@@H]4[C@@H]5O[C@@H]5[C@@]5(O)CC=CC(=O)[C@]5(C)[C@H]4CC[C@]23C)C1` [Withanolide A, withanolide A, reference compound], in the test on WNT-TCF targets [1] (setting [10]), the AXIN2 expression is 0.8, the CDKN1A expression stood at 0.7, the LGR5 expression is reported as 0.8 and the cMYC expression was 0.4. For the same molecule, in the test with WNT-TCF targets [1] (setting [11]), the AXIN2 expression was determined as 1.8 and the LGR5 expression amounted to 1.3.

In the test with WNT-TCF targets [1] (setting [10]), `CC1=C(C)C(=O)O[C@@H]([C@@H](C)[C@H]2CC[C@H]3[C@@H]4[C@@H]5O[C@@H]5[C@@]5(O)CC=CC(=O)[C@]5(C)[C@H]4CC[C@]23C)C1` [Withanolide B, withanolide B, reference compound] came in with an AXIN2 expression of 1.1, a CDKN1A expression of 1.9, an LGR5 expression of 1.3 and a cMYC expression of 1.3. Moreover, in the test with WNT-TCF targets [1] (setting [11]), the AXIN2 expression amounted to 1.3 and the LGR5 expression is recorded as 1.4.
